Measurements reported in patent publication US7329686B2, “Substituted thiophene compounds” (AstraZeneca AB, priority 2002, dated 2008).
Where a name gives a salt, the structure may show the parent alone.

What was measured:
Nitric oxide synthase = target: T1, Nitric oxide synthase (Mus musculus, UniProt P29477); assay: Screen 1: nitric oxide synthase inhibition, 3H-L-arginine to 3H-L-citrulline conversion, lysate of induced J774A-1 cells; format: biochemical; details: enzyme from LPS/IFNg-induced murine macrophage cell line J774A-1; 1 hour at room temperature
T1 construct: endogenous in cells; host or cells: J774A-1 murine macrophage cell line, induced with LPS and IFN-gamma; crude lysate
Protocol: The activity of compounds of formula (I), or a pharmaceutically acceptable salt, enantiomer or racemate thereof, may be screened for nitric oxide synthase inhibiting activity by a procedure based on that of Förstermann et al., Eur. J. Pharm., 1992, 225, 161-165. Nitric oxide synthase converts ^3H-L-arginine into ^3H-L-citrulline which can be separated by cation exchange chromatography and quantified by liquid scintillation counting.
Enzyme is prepared, after induction, from the cultured murine macrophage cell line J774A-1 (obtained from the laboratories of the Imperial Cancer Research Fund). J774A-1 cells are cultured in Dulbeccos Modified Eagles Medium (DMEM) supplemented with 10% foetal bovine serum, 4 mM L-glutamine and antibiotics (100 units/ml penicillin G, […] streptomycin & […] amphotericin B). Cells are routinely grown in […] flasks containing 35 ml medium kept at 37° C. and in a humidified atmosphere containing 5% CO2. […]
Labelled L-citrulline is separated from labelled L-arginine using Dowex AG-50W. […] After allowing the samples to dry the L-citrulline is quantified by scintillation counting.
In a typical experiment basal activity is 300 dpm per 75 μl sample which is increased to 1900 dpm in the reagent controls. […] Compounds are tested at a range of concentrations and from the inhibitions obtained IC50 values are calculated. […]

Recombinant human iNOS = target: T2, Recombinant human iNOS (Homo sapiens, UniProt P35228); assay: Screen 2: recombinant human NO synthase inhibition, L-[3H]citrulline formation; format: biochemical; details: recombinant human iNOS expressed in E. coli; 60 min pre-incubation with NADPH
T2 construct: made in house; host or cells: E. coli (lysate)
Protocol: Recombinant human NO synthases (iNOS, eNOS & nNOS) were expressed in E. coli and lysates were prepared in Herpes buffer (pH 7.4) containing co-factors (FAD, FMN, H4B), protease inhibitors, lysozyme and the detergent, CHAPS. These preparations were used, at suitable dilution, to assess inhibition of the various isoforms. Inhibition of NOS was determined by measuring the formation of L-[^3H]citrulline from L-[^3H]arginine using an adaptation of the method of Förstermann et al.^9 Enzyme assays were performed in the presence of 3 μM [^3H]arginine, 1 mM NADPH and other co-factors required to support NOS activity (FAD, FMN, H4B, calmodulin, Ca^2+). […] Incubations continued for a further 60 min before the assays were quenched and [^3H]citrulline separated from unreacted substrate by chromatography on Dowex-50W resin in a 96-well format.

[1] = target: T3, human form of induced nitric oxide synthase (Homo sapiens, UniProt P35228); assay: Screen 3: nitrite accumulation in cytokine-induced DLD-1 cells (Griess reagent); format: cell-based; details: DLD-1 human colorectal carcinoma cells, nitrite accumulation over 5 hours
T3 construct: Nitric oxide synthase was induced in cells by addition of medium containing human recombinant gamma-IFN; endogenous in cells; host or cells: DLD-1 human colorectal carcinoma cells (ECACC 90102540), induced with IFN-gamma, TNF-alpha, IL-6 and IL-1-beta
Protocol: The human colorectal carcinoma cell line, DLD-1 (obtained from the European Collection of Animal Cell Culture—cell line number 90102540) was routinely grown in RPMI 1640 supplemented with 10% (v/v) foetal bovine serum, and 2 mM L-glutamine, at 37° C. in 5% CO2. Nitric oxide synthase was induced in cells by addition of medium containing human recombinant gamma-IFN (1000 units/ml), TNF-alpha (200 U/ml), IL-6 (200 U/ml) and IL-1-beta (250 U/ml). After incubation for 18 hours at 37° C., the medium was removed and the cells washed with warm phosphate buffered saline. Cells were incubated for a further 5 hours at 37° C./5% CO2 in RPMI 1640 containing 100 μM L-arginine and 100 μM verapamil-HCl in the presence and absence of test compounds. Nitrite accumulation was determined by mixing an equal volume of culture media with Griess reagent (10 mg/ml sulphanilamide, 1 mg N-(1-naphthyl)ethylenediamine in 1 ml 2.5% (v/v) phosphoric acid). Inhibition in the presence of compounds was calculated relative to the nitrite levels produced by untreated cells. IC50 values were estimated from a semi-log plot of % inhibition versus concentration of compound.

IC50 (Nitric oxide synthase): < 10 µM
IC50 (Recombinant human iNOS): < 10 µM
IC50 [1]: < 100 µM
SMILES: Cc1cc(S[C@H](CN)c2ccccc2)c(C#N)s1 [Example 1, 3-[[(1S)-2-Amino 1-phenylethyl]thio]-5-methyl-2-thiophenecarbonitrile oxalate]
